Columns and labels:
Format in all cases: binding
d(A3GAGGAA3) = test: Thermal UV denaturation (Tm), parallel target d(A3GAGGAA3); conditions: for Tm (cooling) / Tm (heating): parallel N/5′, 5 μM each in TE buffer pH 7, incubated overnight at 4° C.
Method: (§1) The N-caps investigated consisted of a series of arenyl and aliphatic carboxylic acids. […] Thermal UV denaturation (Tm) data for the equilibria between N-cap-CTCCT and d(A3GAGGAA3) (SEQ. ID NO.: 5) (N/5′ or parallel orientation) and N-cap-CTCCT and d(A3AGGAGA3) (SEQ. ID NO.: 4) (N/3′ or antiparallel orientation) are collected in Table 2. Thermal UV denaturation curves were obtained with sample solutions made by combining the N-capped (αPNA and ssDNA components (5 μM each) in TE buffer (10 mM Tris-HCl, 1 mM EDTA, pH 7). These solutions were then incubated overnight at 4° C.

d(A3AGGAGA3) [1] = test: Thermal UV denaturation (Tm), antiparallel target d(A3AGGAGA3); conditions: antiparallel N/3′; 5 μM each in TE buffer pH 7, incubated overnight at 4° C.
Method: as §1

d(TA3G5A3T) = test: Thermal denaturation (Tm) of complex with d(TA3G5A3T); conditions: for Tm (cooling) / Tm (heating): Table 3, N-4-(cyclohexyl)butyryl cap
Method: The α-helical secondary structure (˜26%) of these backbone 1 αPNAs in the absence of DNA was confirmed by circular dichroism (CD) studies in H2O. Both the N-terminal linked (b1) and C-terminal-linked (b1′) cysteine dimers formed complexes with d(A10) in H2O (Table 1, entries 1 and 2). […] The homothymine b1αPNAs required a relatively long incubation period (up to 4 days at 4° C. until constant absorbance was reached) due to the slow kinetics of annealing.
(§2) (Cf. Corey, D. R. J. Am. Chem. Soc. 1995, 117, 9373–9374). […] Even the T5(b2) module hybridized with d(A10) (SEQ ID NO.: 2)—albeit weakly as expected for a complex held together by only A•T base pairs (entry 5). […] This implies that equilibration is being achieved during the cooling cycle. This Tm is 20° C. higher than that of C5(b1)•d(TA3G5A3T) in H2O (compare entries 6 and 7) and 35° C. higher than the corresponding DNA•DNA duplex (in TE-buffer+150 mM NaCl). […] (Marky, L. A.; Breslauer, K. J. Biopolymers 1987, 26, 1601–1620). Added salt was expected to disrupt favorable charge—charge interactions between cationic αPNAs and anionic DNA.
(§3) This reduction in melting temperature presumably arises from residual hydration of the mismatched nucleobases and provides additional support for our proposed Watson-Crick binding model.

d(A3GGAGGA3) [2] = test: Thermal denaturation (Tm) of complex with d(A3GGAGGA3)
Method: as §2, §3

d(A3AGGAGA3) [3] = test: Thermal UV denaturation (Tm), antiparallel target d(A3AGGAGA3); conditions: Table 1; antiparallel (N/3′) orientation
d(A3GGAGGA3) [4] = test: CD titration (Job plot) with d(A3GGAGGA3); conditions: 258 nm, 5° C., total concentration 12 μM, water
Method: Spectra were recorded at 5° C. using a JASCO J-600 CD spectro-polarimeter. Samples having a total concentration ([αPNA]+[DNA]) of 12 μM were made up in doubly deionized water and placed in a stoppered optical quartz cell (1 cm pathlength). Dry air was purged through the sample compartment. Each data point represents the average of eight (baseline corrected) points. […] This is in line with the PAGE experiment with T5(b2)-dimer and d(C3T(TC2)2A10C(TC2)3) (SEQ. ID NO.: 6).

[5] = Table 3, N-4-(cyclohexyl)butyryl cap

Substance	Tm (cooling) (d(A3GAGGAA3)) [°C]	Tm (heating) (d(A3GAGGAA3)) [°C]	Tm (heating) (d(A3AGGAGA3) [1]) [°C]	also measured
n-hexanoyl-CTCCT [CH3CH2CH2CH2CH2CO]	35.0	41.0	33.4	–
3-cyclopentylpropionyl-CTCCT [C5H9CH2CH2CO]	38.2	43.7	33.8	–
n-butyryl-CTCCT [CH3CH2CH2CO]	36.7	40.0	30.2	–
4-cyclohexylbutyryl-CTCCT [C6H11CH2CH2CH2CO]	43.7	47.9	33.4	Tm increase compared to the parent N-acetylated αPNA (d(A3GAGGAA3); parallel, heating, cooling): 11–12 °C
4-(p-nitrophenyl)butyryl-CTCCT [p-NO2C6H4(CH2)3CO]	37.8	41.6	34.4	–
4-cyclohexylbutyryl-CCCCC [C6H11(CH2)3CO-CCC CC]	–	–	–	Tm (cooling) (d(TA3G5A3T)): 66 °C; Tm (heating) (d(TA3G5A3T)): 65 °C; Tm (heating) (d(TA3G5A3T); listed as N-4-(cyclohexyl)butyryl-CCCCC): 64.9 °C
4-(p-methoxyphenyl)butyryl-CTCCT [p-MeOC6H4(CH2)3CO]	37.0	41.3	34.2	–
4-phenylbutyryl-CTCCT [C6H5(CH2)3CO]	38.5	41.8	33.6	–
4-(2-naphthyl)butyryl-CTCCT [2-naphthyl(CH2)3CO]	40.0	42.7	36.3	–
4-cyclohexylbutyryl-CCTCC [C6H11(CH2)3CO-CCT CC]	–	–	–	Tm (cooling) (d(TA3G5A3T)): 46 °C; Tm (heating) (d(TA3G5A3T)): 50 °C; lowering of Tm (cooling) by a single base-pair mismatch (d(TA3G5A3T); mismatched complex): 10 °C; lowering of Tm (heating) by a single base-pair mismatch (d(TA3G5A3T); mismatched complex): 15 °C; Tm (cooling) (d(A3GGAGGA3) [2]; [5]): 51 °C; Tm (heating) (d(A3GGAGGA3) [2]; [5]): 60 °C; Tm (heating) (d(A3GGAGGA3) [2]; Table 3, N-4-(cyclohexyl)butyryl cap, listed as N-4-(cyclohexyl)butyryl-CCTCC): 60.8 °C
Ac-Cys^Acm-Lys-(Ser^C-Ala2-Lys)2-Ser^T-(Ala2-Lys-Ser^C)2-Gly-Lys-NH2 [CCTCC(b2)]	–	–	–	Tm (d(TA3G5A3T); TE-buffer): 38 °C; Tm (d(A3GAGGAA3); Table 1, parallel (N/5′) orientation): 37 °C; Tm (d(A3AGGAGA3) [3]): 32 °C; CD intensity minimum (d(A3GGAGGA3) [4]): 50 mol % αPNA; Tm (d(A3GGAGGA3) [2]; Table 1): 49 °C
4-(1-pyrenyl)butyryl-CTCCT [1-pyrenyl(CH2)3CO]	43.8	42.6	39.0	–

From patent US7183394B1, “Helical nucleopeptides” (priority 2000, dated 2007)
